The text below walks through data of patent US9527896B2, “Stabilized p53 peptides and uses thereof” (DANA-FARBER CANCER INSTITUTE, INC., priority 2007, dated 2016).

Bridge positions count the residues as written; N and C are the ends. Square brackets hold non-standard residues; d marks the D form. Peptide text beside a SMILES is read from it. R8 = C=CCCCCCC[C@@](C)(N)C(=O)O; S5 = C=CCCC[C@](C)(N)C(=O)O; βAla = NCCC(=O)O

Data set [1] has as its system RKO cells. Nature of the data set: Annexin V binding as an indicator of apoptosis, RKO cells. Particulars: 24 hours. It is filed as cell-based. The text has this: FIG. 9 Annexin V binding as an indicator of apoptosis.
The nature of data set [2]: circular dichroism. Particulars: water; pH 7.0; 20 °C; 10-50 uM.
Data set [3] deals with T1, HDM2 (Homo sapiens, UniProt Q00987).
T1 construct: Co-Immunoprecipitation of FITC-SAH-p53 Peptides and Endogenous HDM2; endogenous in cells; host or cells: SJSA-1 osteosarcoma cells
T1 sequence (Q00987 whole entry, looked up): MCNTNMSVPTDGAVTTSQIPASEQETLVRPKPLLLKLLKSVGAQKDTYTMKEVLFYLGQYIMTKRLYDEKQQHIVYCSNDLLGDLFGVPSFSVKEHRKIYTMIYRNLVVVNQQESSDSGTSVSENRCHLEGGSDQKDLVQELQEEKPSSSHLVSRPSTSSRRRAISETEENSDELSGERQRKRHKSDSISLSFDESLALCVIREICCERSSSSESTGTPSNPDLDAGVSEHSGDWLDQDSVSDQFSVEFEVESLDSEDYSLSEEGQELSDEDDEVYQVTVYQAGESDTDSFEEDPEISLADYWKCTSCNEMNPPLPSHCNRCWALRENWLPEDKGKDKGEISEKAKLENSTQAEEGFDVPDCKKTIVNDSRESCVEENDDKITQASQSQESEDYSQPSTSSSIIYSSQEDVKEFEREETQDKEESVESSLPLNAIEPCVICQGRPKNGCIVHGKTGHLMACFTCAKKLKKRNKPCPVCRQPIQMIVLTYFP
Nature of the data set: Kd (nM). An excerpt: The patent's description of the figure: FIGS. 1A-1F Synthesis, Sequence, and Biochemical Analysis of SAH-p53 Peptides. FIG. 1A Non-natural amino acids were synthesized as described and cross-linked by ruthenium-catalyzed ring-closing olefin metathesis. […] Note: UAH-p53-8 is the “unstapled” form of SAH-p53-8.

For data set [4], the target named is T2, Native HDM2 (Homo sapiens, UniProt Q00987).
T2 construct: Co-Immunoprecipitation of FITC-SAH-p53 Peptides and Endogenous HDM2; endogenous in cells; host or cells: SJSA-1 osteosarcoma cells
T2 sequence (Q00987 whole entry): as the sequence (Q00987 whole entry, looked up) above
Briefly: Co-immunoprecipitation of FITC-SAH-p53 peptides and endogenous HDM2. Type of data set: cell-based. Particulars: SJSA-1 cells.
Experimental: FIG. 8 SJSA-1 cells were incubated with FITC-peptides followed by lysis and anti-FITC pull down.
SJSA-1 osteosarcoma cells (1×10^6) were treated with FITC-p53 peptides (15 μM) in serum-free media for 4 hours, followed by serum replacement and additional 8 hour incubation. The cells were thoroughly washed with serum-containing media and PBS and exposed to lysis buffer (50 mM Tris pH 7.6, 150 mM NaCl, 1% Triton-X100, 1 mM PMSF, 1 U mL^−1 benzonase nuclease [EMD Biosciences] and complete protease inhibitor tablet [Roche]) at room temperature. All subsequent steps were all performed at 4° C. The extracts were centrifuged, and the supernatants were incubated with protein A/G sepharose (50 μL 50% bead slurry per 0.5 mL lysatcs; Santa Cruz Biotechnology). The pre-cleared supernatants (500 μL) were collected after centrifugation, incubated with 10 μL of goat-anti-FITC antibody (AbCam) for 1.5 h followed by protein A/G sepharose for an additional 1.5 hours. The immunoprecipitation reactions were pelleted and washed three times with lysis buffer. The precipitated proteins were suspended in SDS-containing loading buffer, boiled, and the supernatants were processed by SDS-PAGE on 4-12% Bis-Tris gels (Invitrogen). The proteins were blotted into Immobilon-P membranes (Millipore). […]

For the molecule `CC(=O)NCCC(=O)N[C@@H](CC(C)C)C(=O)N[C@@H](CO)C(=O)N[C@@H](CCC(N)=O)C(=O)N[C@@H](CCC(N)=O)C(=O)N[C@H](C(=O)N[C@@H](Cc1ccccc1)C(=O)N[C@]1(C)CCCCCCC=CCCC[C@@](C)(C(=O)N[C@@H](CCC(N)=O)C(=O)N[C@@H](CC(N)=O)C(N)=O)NC(=O)[C@H](CC(C)C)NC(=O)[C@H](CC(C)C)NC(=O)[C@H](CCCNC(=N)N)NC(=O)[C@H](Cc2c[nH]c3ccccc23)NC(=O)[C@H](CC(C)C)NC(=O)[C@H](CC(N)=O)NC1=O)[C@@H](C)O` [SAH-p53-6] (Ac-[βAla]LSQQTF[R8]NLWRLL[S5]QN-NH2; staple 8-15), the “apoptosis induction (annexin V, FACS)” value in data set [1] is reported as “caused significant apoptosis”. For the same molecule, the helicity in data set [2] turned out to be 14%. This molecule also had a Kd in data set [3] of 56 ± 11 nM.
As for “FITC-SAH-p53-8: N-terminally fluoresceinated SAH-p53-8”, in data set [4], the “co-immunoprecipitation of native HDM2 (anti-FITC pull down)” value is “co-immunoprecipitated”.

The Kd is a measure of binding affinity in units of concentration. Higher therefore signals a looser complex.
